US10647720B2 (Asana Biosciences, LLC, priority 2011, dated 2020)

How the values were obtained:
[1] = molecular target: Syk (356-635 amino acids)-catalytic domain (Homo sapiens (Human), UniProt P43405); experiment: Inhibition of enzymatic Syk kinase activity (radiometric); assay type: biochemical
Source text: The objective of this assay was to examine by radiometric method the ability of compounds to inhibit Syk kinase enzyme. Syk is capable of phosphorylating substrates such as VAV, LAT, SLP-76, which in turn activate MAPK, PLCγ signaling pathways. […] This in vitro assay tests the ability of syk to phosphorylate a substrate peptide in the presence of ATP. By using a radio-labeled form of ATP, it is possible to measure the amount of phosphorylation of the substrate. The enzyme transfers a radio-labeled phosphate group from γ32 P labeled ATP to pG4T. Briefly the enzyme was incubated with substrate, radio-labeled & cold ATP and substrate in buffer with or without compounds. At the end of the reaction, the reaction mixture was transferred on to a Multiscreen filter plate and unreacted γ^32P ATP was washed off. The filter plate was dried and the radioactivity was measured on a scintillation counter to estimate the incorporated radioactivity on the substrate. The percent inhibition of activity of the enzyme was calculated by comparing counts in the presence and absence of compounds. […] Microscint-O® reagent (100 μL, Perkin Elmer) was added to each well, the plate was sealed with Topseal®-A microplates and incubated for 10 minutes at room temperature at very low speed on rocker and the plate was read in the Topcount® NXL instrument.

[2] = molecular target: JAK2 (Homo sapiens (Human), UniProt O60674); experiment: Inhibition of enzymatic JAK2 kinase activity (TR-FRET); assay type: biochemical
JAK2, sequence (O60674 808-1132): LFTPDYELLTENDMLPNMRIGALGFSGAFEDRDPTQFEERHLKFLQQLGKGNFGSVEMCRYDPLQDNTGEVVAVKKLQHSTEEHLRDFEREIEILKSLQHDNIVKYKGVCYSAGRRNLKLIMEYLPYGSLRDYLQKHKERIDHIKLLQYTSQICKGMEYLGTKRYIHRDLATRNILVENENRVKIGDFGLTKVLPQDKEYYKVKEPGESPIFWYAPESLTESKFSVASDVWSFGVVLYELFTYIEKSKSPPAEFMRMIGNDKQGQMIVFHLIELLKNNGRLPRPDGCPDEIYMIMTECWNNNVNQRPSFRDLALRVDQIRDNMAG
Source text: The objective of this assay was to screen compounds in a Time-resolved fluorescence resonance energy transfer (TR-FRET) Enzymatic assay method for their potential to inhibit JAK2 (Janus kinase) activity.
TR-FRET assays are homogeneous proximity assays where Eu-labeled antiphosphotyrosine antibody binds to the phosphorylated substrates labeled with Ulight fluorescence acceptor. Eu can transfer energy to Ulight accepter in the complex and the interaction of two dye-labeled binding partners is detected by the energy transfer between a donor and an acceptor dye, and the subsequent light emission by the acceptor dye. The intensity of the light emission is proportional to the level of Ulight peptide phosphorylation.
Two μL of 10% DMSO in blank, substrate control and positive control wells and 2 μL of test compound in test wells was added. Thirteen μL of assay buffer in blank and substrate control wells and 13 μL of Enzyme buffer mix in positive and test wells was added. The reaction mixture was incubated for 30 minutes at RT on a plate shaker. […] The reaction plate was incubated for 60 minutes at RT on a plate shaker. The reaction was stopped by adding 40 mM EDTA (10 μL) in buffer. Ten μL of antibody was added to all the wells. The plate was read in a Wallac® 1420 Multilabel Counter Victor 3 instrument (Ex: 340 nm Em: 615 & 665 nm) The following calculations were made:
F@ 665 Value-Buffer blank […]

[3] = tested on: RBL2H3 cells; experiment: Degranulation assay: β-hexosaminidase release during immune complex mediated degranulation; assay type: cell-based, Rat
Procedure: The objective of this assay was to examine by Fluorescence method the effect of compounds on β-hexosaminidase release during immune complex mediated degranulation in RBL2H3 cells. Compounds were tested for their ability to inhibit the ability of this immune complex to mediate β-hexosaminidase release, in an enzyme assay with p-nitrophenyl-β-D-glucosaminide as substrate. […] Emission 460 nm). RBL2H3 cells were maintained in MEM complete media containing 10% FBS at 70%-80% confluence in a mammalian cell culture CO2 incubator with 5% CO2 at 37° C. 2×10^5 cells/well were plated in 1 mL of complete media and incubated for 5 hours for cell attachment. Complete media was replaced with 1 mL of serum free MEM media containing 1.2 μg/mL of anti-DNP rat IgE as sensitizing agent and further incubated overnight with 5% CO2 at 37° C. […] Cells were further stimulated with 5 μg/mL of DNP-BSA for 60 minutes. Plates were centrifuged for 5 minutes at 1000 rpm and 25 μL of culture supernatant was transferred from each assay well into a 96 well black coated plate. 25 μL β-NAG substrate was added to this mixture and incubated at room temperature for 30 minutes. The reaction was terminated with 100 μL of stop solution and fluorescence was monitored. (Excitation 355 nm; Emission 460 nm) See, Sanderson, (2010), Cellular Immunology, 262(1): 28-34 and Silverman, (2006) MCB, 26(5):1826-1838, which are incorporated herein by reference. The % release of β-Hexosaminidase for the test compound was calculated using the following formula: RBL2H3 cells were maintained in MEM complete media containing 10% FBS at 70-80% confluence in a mammalian cell culture CO2 incubator with 5% CO2 at 37° C. 5×10^4 cells/well were plated in 200 μL of complete media containing 0.3 μg/mL of anti-DNP rat IgE as sensitizing agent for 24 hours at 37° C. & 5% CO2. The following day, cells were washed twice with PIPES buffer for 10 minutes at 37° C. and replenished with serum free MEM media. […] After incubation with substrate, 150 μL of stop solution was added and fluorescence was monitored. […]

[4] = tested on: Collagen Induced Arthritis (CIA) in female Lewis rats; experiment: In vivo chronic study: Collagen Induced Arthritis (CIA); design: species or system rat; conditions: 0.5 mg/Kg
Procedure: Female Lewis rats (8 per group, 6-8 weeks old) were immunized on day 1 with type II collagen (Immunization grade Bovine type II; Chondrex; Cat #20021) emulsified with Complete Freund's Adjuvant (Sigma; Cat # F5881) at a final concentration of 1.2 mg/mL). For the initial immunization, the animals were injected at the base of the tail with 300 μg of the cII (0.25 mL/rat). A booster injection of the same type II collagen emulsified with Incomplete Freund's Adjuvant (Sigma, Cat #F5506) (0.25 mL/rat) was given to the animals on day 8 at the base of the tail (100 μg). The final cII concentration in the booster was […]. […]
Edema: Paw volumes are measured by Plethysmometry for the animals before induction of CIA (Basal readings) and on Day 1, 3, 6 and 9 of dosing period. Both hind paw volumes were measured and edema was calculated by subtracting from the basal mean.
Arthritic score: Animals were scored for the symptoms of arthritis every day starting from Day of onset of disease till the end of the study. Both the hind paws were scored and the total scores were averaged and compared with control. […]
The percent inhibition of Edema was calculated with respect to control by the formula: […]
The percent inhibition of Arthritic score was calculated with respect to control by the formula: […]

**Q.** What does the source list for `O=c1[nH]ncc2nc(N3CCCCCC3)nc(Nc3ccc(N4CCN(CCO)CC4)cc3)c12` [Example 190, 2-(azepan-1-yl)-4-((4-(4-(2-hydroxyethyl)piperazin-1-yl)-phenyl)amino)pyrimido[4,5-d]-pyridazin-5(6H)-one]?
**A.** IC50 [1]: < 10 nM; IC50 [2]: < 10 nM; inhibition at 1 µM ([3]; Rattus norvegicus, RBL-2H3, 1 μM, Assay Protocol B (96 well format)): 83%; EC50 ([3]; Rattus norvegicus, RBL-2H3, Assay Protocol B (96 well format)): 21 nM

**Q.** How did the “Degranulation % inhibition at 1 μM” value ([3]; 1 μM, Assay Protocol B (96 well format)) turn out when `N=Cc1nc(N2CCCCCC2)nc(Nc2ccc(N3CCCC(CC(=O)O)C3)cc2)c1C(N)=O` (stereo not shown) [Example 232] was run?
**A.** Its value is 0%.

**Q.** How did the “Percent inhibition of Edema (Day 9 of dosing)” value ([4]; Day 9 of dosing) turn out when `CN(Cc1cnc2nc(N)nc(N)c2n1)c1ccc(C(=O)N[C@@H](CCC(=O)O)C(=O)O)cc1` [Methotrexate, methotrexate] was run?
**A.** The value was 6%.

**Q.** What about the “Percent inhibition of Arthritic score (Day 10 of dosing)” value ([4]; Day 10 of dosing) of the same molecule?
**A.** The value was 15%.
